3 compounds from US20240285728A1, “TARGETED PROTEIN DELIVERY TO MAMMALIAN EMBRYOS AND THERAPEUTIC APPLICATIONS USING EXOSOMES” (University of Maryland, Baltimore, priority 2021, published 2024) can be followed below.

Data set [1] deals with neuroepithelial cells. The conditions noted are these: mouse, in vivo.
Procedure: (§2) Mouse models of diabetic embryopathy. The mouse model of diabetic embryopathy was described previously [4,22,36,45,46]. Briefly, ten-week old female mice were intravenously injected daily with 75 mg/kg STZ over two days to induce diabetes. Diabetes was defined as 12 hours fasting blood glucose level of ≥250 mg/dL. Male and female mice were paired at 3:00 PM, and day 0.5 (E0.5) of pregnancy was established by the presence of the vaginal plug at 8:00 AM the next morning. Female mice injected with vehicle served as the nondiabetic controls. On E7.5, E8.5, E9.5 or E10.5 mice were euthanized and conceptuses were dissected out of the uteri for biochemical and molecular analysis.
(§3) Immunoblotting. Immunoblotting was performed as described by Yang at el [4]. Lysis buffer (Cell Signaling Technology, Danvers, MA) containing a protease inhibitor cocktail (Sigma, St Louis, MO) was used to extract protein. Equal amounts of protein and Precision Plus Protein Standards (Bio-Rad, Hercules, CA) were resolved by SDS-PAGE and transferred onto Immunobilon-P membranes (Millipore, Billerica, MA). […] Signals were detected using the SuperSignal West Femto Maximum Sensitivity Substrate kit (Thermo Fisher Scientific, Waltham, MA). […]
The test system of data set [2] is embryos of nondiabetic dams. The settings on record: mouse, in vivo.
Procedure: Mouse models of diabetic embryopathy. […] Briefly, ten-week old female mice were intravenously injected daily with 75 mg/kg STZ over two days to induce diabetes. Diabetes was defined as 12 hours fasting blood glucose level of ≥250 mg/dL. Male and female mice were paired at 3:00 PM, and day 0.5 (E0.5) of pregnancy was established by the presence of the vaginal plug at 8:00 AM the next morning. Female mice injected with vehicle served as the nondiabetic controls. On E7.5, E8.5, E9.5 or E10.5 mice were euthanized and conceptuses were dissected out of the uteri for biochemical and molecular analysis. The exosome inhibitor GW4869 (Sigma, St, Louis, MO) was injected daily to nondiabetic pregnant dams from E7.0 to E8.0. NTDs were examined at E10.5.
Statistical analyses. Data were presented as means±standard errors (SE). In animal studies, experiments were repeated at least three times, and embryonic samples from each replicate were from different dams. Statistical differences were determined by one-way analysis of variance (ANOVA) using the SigmaPlot 12.5 (SigmaStat, San Jose, CA). In one-way ANOVA analysis, Tukey test was used to estimate the significance of the results (P<0.05). The Chi square test and Fisher Exact test were used to estimate the significance of NTD incidence.
For data set [3], the system named is exosome production in the developing embryos. Kind of data set: Exosome profile, exosome numbers and CD63 expression in E8.5 embryos after GW4869 injections. The format is in vivo, mouse. On the procedure:
Mouse models of diabetic embryopathy. […] NTDs were examined at E10.5.
Exosome extraction and labelling. Cells and debris were removed from cell culture media via centrifugation at 2000×g for 30 minutes at 4° C. Supernatants containing the cell-free culture media were transferred to a new tube without disturbing the pellet. Total Exosome Isolation (#4478359, Invitrogen, Carlsbad, CA) at 0.5 volume of the collected supernatants was added to each tube. The cell culture media/reagent mixture was mixed well via vortex and pipetting up and down until it became a homogenous solution, and then was incubated at 4° C. overnight. After incubation, the samples were centrifuged at 10,000×g for 1 hour at 4° C. and the supernatants were discarded. Exosomes were contained in the pellet at the bottom of the tube (not visible in most cases). The pellet was re-suspended in 1 ml of 1×PBS, and NanoSight (#NS300, Malvern Panalytical) was used to measure the exosomes. The presence of exosomes was confirmed by Western blot using the exosomal marker CD63 (Santa Cruz Biotechnology, Dallas, TX). Exosomes were suspended in 1 ml Diluent C (Sigma, St Louis, MO) and labeled by incubating with PKH67 fluorescent dye (Sigma, St Louis, MO) for 5 min in the dark at room temperature. […]

Data set [4] concerns (p)-PERK, (p)-IRE1α, (p)-eIF2α and CHOP. The conditions noted are these: mouse, in vivo.
Procedure: as §2, §3
For data set [5] the following is noted: mouse, in vivo.
Procedure: Briefly, ten-week old female mice were intravenously injected daily with 75 mg/kg STZ over two days to induce diabetes. Diabetes was defined as 12 hours fasting blood glucose level of ≥250 mg/dL. Male and female mice were paired at 3:00 PM, and day 0.5 (E0.5) of pregnancy was established by the presence of the vaginal plug at 8:00 AM the next morning. Female mice injected with vehicle served as the nondiabetic controls. On E7.5, E8.5, E9.5 or E10.5 mice were euthanized and conceptuses were dissected out of the uteri for biochemical and molecular analysis. The exosome inhibitor GW4869 (Sigma, St, Louis, MO) was injected daily to nondiabetic pregnant dams from E7.0 to E8.0. NTDs were examined at E10.5.
Data set [6] concerns Fgf2 promoter in yolk sac endoderm PYS2 cell line. Kind of data set: Fgf2 promoter luciferase reporter activity under high glucose. The conditions noted are these: suppressed by high glucose (25 mM glucose), PYS2 cells. The format is cell-based. On the procedure:
(§1) Cell culture and transfection. The C17.2 mouse neural stem cell line from the European Collection of Cell Culture (Salisbury, UK) and the yolk sac endoderm PYS2 cell line (ATCC® CRL2745™) were maintained in DMEM (5 mM glucose) supplemented with 10% FBS, 100 U/ml penicillin, and […] streptomycin at 37° C. in a humidified atmosphere of 5% CO2. Mouse recombinant FGF2 (#3139-FB; R&D Systems, Minneapolis, MN) was used at a final concentration of 10 ng/ml. Lipofectamine 2000 (Invitrogen, Carlsbad, CA) was used according to the manufacturer's protocol for transfection of siFGF2 and control siRNA (Invitrogen, Carlsbad, CA) into the cells. After seeding for 12 h, cells were transfected with recombinant FGF2 and cultured in 1% FBS for 8 h, after which cells were cultured in 10% FBS and collected after 48 h for analysis.
Background: A reporter such as luciferase makes a cellular process visible.

The subject of data set [7] is Survivin promoter. In words: Luciferase reporter activity driven by the Survivin promoter. Format: cell-based. On the procedure:
as §1

For data set [8], the system named is isolated E8 Flk-1^+ progenitors. In words: Survivin protein in exosomes of isolated E8 Flk-1+ progenitors. The conditions noted are these: high glucose. The format is cell-based, mouse. On the procedure:
Isolation of Flk-1+ endothelial progenitor cells. Flk-1^+ progenitor cells were isolated from the E8 yolk sac. Yolk sacs were minced in phosphate-buffered saline PBS (Thermo Fisher Scientific, Waltham, MA), digested with 1 mg/ml of collagenase type I (Sigma, St Louis, MO) and incubated on an orbital shaker at 37° C. for 30-45 min. Following the collagenase treatment, cells were washed twice with growth medium (EBM-2, fetal bovine serum (10%), hFGF-basic (0.5 ml), hydrocortisone (0.2 ml), VEGF (0.5 ml), IGF-1 (0.5 ml), ascorbic acid (0.5 ml), hEGF (0.5 ml), GA-100 (0.5 ml)) before being plated. Cells were trypsinized (Lonza, Walkersville, MD) and sorted for Flk-1 with MACS microbeads (Miltenyi Biotec, Bergisch Gladbach, Germany) as per the kit instructions. The Flk-1^+ progenitor cells were collected and cultured in growth medium as mentioned above.
Exosome extraction and labelling. Cells and debris were removed from cell culture media via centrifugation at 2000×g for 30 minutes at 4° C. Supernatants containing the cell-free culture media were transferred to a new tube without disturbing the pellet. Total Exosome Isolation (#4478359, Invitrogen, Carlsbad, CA) at 0.5 volume of the collected supernatants was added to each tube. […]

Data set [9] has as its system Survivin. Kind of data set: Survivin mRNA and protein expression in normal and high glucose culture. The format is cell-based. The settings on record: normal glucose 5 mM / high glucose 25 mM culture. On the procedure:
as §1
Real-time PCR (RT-PCR). mRNA was isolated from embryos using the RNeasy Mini kit (Qiagen, Hilden, Germany), and then reversely transcribed using the high-capacity cDNA archive kit (Applied Biosystem, Grand Island, NY). Real time-PCR for Fgf2, Fgfr, Bmp4, Vegfr2, mVegfr1, Calnexin, GRP94, PDIA, BiP, IRE1α, CHOP, Survivin and β-actin were performed using the Maxima SYBR Green/ROX qPCR Master Mix assay (Thermo Fisher Scientific, Waltham, MA) in the Step One Plus system (Applied Biosystem, Grand Island, NY).

Data set [10] deals with yolk sac cell line. In words: Exosome number and Survivin protein in exosomes of a yolk sac cell line. Format: cell-based. The method, then:
as §1
Exosome extraction and labelling. Cells and debris were removed from cell culture media via centrifugation at 2000×g for 30 minutes at 4° C. Supernatants containing the cell-free culture media were transferred to a new tube without disturbing the pellet. Total Exosome Isolation (#4478359, Invitrogen, Carlsbad, CA) at 0.5 volume of the collected supernatants was added to each tube. The cell culture media/reagent mixture was mixed well via vortex and pipetting up and down until it became a homogenous solution, and then was incubated at 4° C. overnight. […]

With `O=C(/C=C/c1ccc(/C=C/C(=O)Nc2ccc(C3=NCCN3)cc2)cc1)Nc1ccc(C2=NCCN2)cc1` [GW4869], the neuroepithelial cell apoptosis entry in data set [1] was “triggered”. In data set [2], the “NTD Embryos” value is 7, the NTD induction result is “mimicked the teratogenic effect of maternal diabetes” and the NTD rate amounted to 7.29%. For the same compound, in [3], the “exosome production in the developing embryos” value is reported as “inhibited”. Also, the “ER stress in neurulation stage embryos” value in [4] is “triggered”. In addition, in data set [5], the “detection in the embryo” value is listed as “reached the embryo”.
Regarding `O=C(O)C(Cc1c[nH]c2ccccc12)N1C(=O)c2ccccc2C1=O` (stereo not drawn) [RG108], the “Fgf2 promoter-driven luciferase activity” value in data set [6] is recorded as “restored”.
On to “FGF2: recombinant fibroblast growth factor 2, used at 10 ng/ml”, for which, in data set [7], the “luciferase reporter activity driven by the Survivin promoter” value is recorded as “stimulated”. Also, in [8], the “Survivin expression in exosomes” value is “abolished this suppression”. For the same compound, the “Survivin mRNA and protein expression” value in data set [9] is “normalized”. The “Survivin in exosomal cargo” value in [10] is listed as “rescued”.
